From ChEMBL document CHEMBL4715901, “Degradation of Signal Transducer and Activator of Transcription Proteins in Cancer Therapeutics” (ACS Med Chem Lett, 2021) come the findings set out here.

Bounds are passed on as bounds.

The target in assay [1] is Protein cereblon/Signal transducer and activator of transcription 3 (Homo sapiens, UniProt P40763+Q96SW2). Kind of assay: Protac activity at E3 ubiquitin ligase/STAT3 in human MOLM-16 cells assessed as degradation of STAT3 incubated for 4 hrs by fluorescent immunoblotting analysis. The assay is classed as cell-based.
Chain of Protein cereblon/Signal transducer and activator of transcription 3 (P40763 whole entry): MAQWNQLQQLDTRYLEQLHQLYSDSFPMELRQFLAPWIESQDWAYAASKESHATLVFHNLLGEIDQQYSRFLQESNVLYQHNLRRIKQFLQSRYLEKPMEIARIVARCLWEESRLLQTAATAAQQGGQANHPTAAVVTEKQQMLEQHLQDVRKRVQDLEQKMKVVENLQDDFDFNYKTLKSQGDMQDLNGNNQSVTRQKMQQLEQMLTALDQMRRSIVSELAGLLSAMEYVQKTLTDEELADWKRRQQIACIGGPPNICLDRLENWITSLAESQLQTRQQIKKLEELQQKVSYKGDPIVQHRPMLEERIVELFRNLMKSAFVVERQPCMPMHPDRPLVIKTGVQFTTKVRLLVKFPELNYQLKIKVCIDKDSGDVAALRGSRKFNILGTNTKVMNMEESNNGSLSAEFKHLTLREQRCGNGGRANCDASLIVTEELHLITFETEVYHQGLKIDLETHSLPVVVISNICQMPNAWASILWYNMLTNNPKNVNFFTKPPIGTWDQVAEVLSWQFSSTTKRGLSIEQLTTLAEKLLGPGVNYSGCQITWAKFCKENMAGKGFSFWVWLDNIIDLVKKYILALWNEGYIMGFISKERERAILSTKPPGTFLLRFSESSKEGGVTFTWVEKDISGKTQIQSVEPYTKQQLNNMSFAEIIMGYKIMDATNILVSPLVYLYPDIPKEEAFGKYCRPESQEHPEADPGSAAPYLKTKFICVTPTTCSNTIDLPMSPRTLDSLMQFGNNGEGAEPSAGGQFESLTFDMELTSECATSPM
Chain of Protein cereblon/Signal transducer and activator of transcription 3 (Q96SW2 whole entry): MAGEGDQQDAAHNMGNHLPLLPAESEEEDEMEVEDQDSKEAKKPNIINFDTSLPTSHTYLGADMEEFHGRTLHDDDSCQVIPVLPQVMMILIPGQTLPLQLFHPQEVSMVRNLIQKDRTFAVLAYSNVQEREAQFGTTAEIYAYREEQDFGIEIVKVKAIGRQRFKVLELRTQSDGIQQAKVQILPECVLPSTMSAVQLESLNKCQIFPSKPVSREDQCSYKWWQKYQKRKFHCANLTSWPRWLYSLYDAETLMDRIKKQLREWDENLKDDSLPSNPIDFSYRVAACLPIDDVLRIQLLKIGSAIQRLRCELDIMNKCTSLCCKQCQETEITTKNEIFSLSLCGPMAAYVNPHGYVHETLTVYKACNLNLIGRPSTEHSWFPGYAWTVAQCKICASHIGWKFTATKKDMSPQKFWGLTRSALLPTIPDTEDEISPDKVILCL
Assay [2] deals with Protein cereblon/Signal transducer and activator of transcription 1-alpha/beta (Homo sapiens, UniProt P42224+Q96SW2). Kind of assay: Protac activity at E3 ubiquitin ligase/STAT1 in human MOLM-16 cells assessed as degradation of STAT1 incubated for 4 hrs by fluorescent immunoblotting analysis. The assay is classed as cell-based.
Chain of Protein cereblon/Signal transducer and activator of transcription 1-alpha/beta (P42224 whole entry): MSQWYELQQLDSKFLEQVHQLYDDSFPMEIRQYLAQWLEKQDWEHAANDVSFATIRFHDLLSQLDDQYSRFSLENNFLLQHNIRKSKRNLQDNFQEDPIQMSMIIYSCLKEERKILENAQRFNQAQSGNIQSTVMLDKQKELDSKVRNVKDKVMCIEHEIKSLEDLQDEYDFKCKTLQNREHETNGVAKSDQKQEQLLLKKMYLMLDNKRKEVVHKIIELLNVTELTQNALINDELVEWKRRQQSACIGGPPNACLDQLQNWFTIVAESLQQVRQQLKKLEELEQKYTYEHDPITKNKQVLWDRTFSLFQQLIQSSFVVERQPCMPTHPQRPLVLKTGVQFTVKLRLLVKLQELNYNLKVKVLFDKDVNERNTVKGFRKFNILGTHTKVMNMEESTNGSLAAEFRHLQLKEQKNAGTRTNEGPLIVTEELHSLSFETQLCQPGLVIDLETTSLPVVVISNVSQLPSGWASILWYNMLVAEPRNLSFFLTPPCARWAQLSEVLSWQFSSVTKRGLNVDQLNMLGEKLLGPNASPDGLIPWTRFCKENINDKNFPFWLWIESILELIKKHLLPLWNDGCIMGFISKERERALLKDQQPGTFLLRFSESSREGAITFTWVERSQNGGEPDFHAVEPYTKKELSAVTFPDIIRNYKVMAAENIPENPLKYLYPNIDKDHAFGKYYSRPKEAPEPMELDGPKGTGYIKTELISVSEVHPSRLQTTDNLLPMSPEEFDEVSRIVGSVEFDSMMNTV
Chain of Protein cereblon/Signal transducer and activator of transcription 1-alpha/beta (Q96SW2 whole entry): as the sequence (Q96SW2 whole entry) above

In the case of `CCN1CC[C@H]2CC[C@@H](C(=O)N[C@@H](CCC(N)=O)C(=O)N[C@@H](Cc3ccc(S(=O)(=O)C4CC4)cc3)C(=O)N3CCC(CCC#Cc4cccc5c4CN(C4CCC(=O)NC4=O)C5=O)CC3)N2C(=O)[C@@H](NC(=O)c2cc3cc(C(F)(F)P(=O)(O)O)ccc3s2)C1` (some centres not stated), the 50% degradation concentration (DC50) was below 250 nM in assay [1] and 500 nM in assay [2].
In the same order, the values of `CCN1CC[C@H]2CC[C@@H](C(=O)N[C@@H](CCC(N)=O)C(=O)N[C@@H](Cc3ccc(S(=O)(=O)c4ccccc4)cc3)C(=O)N3CCC(CCC#Cc4cccc5c4CN(C4CCC(=O)NC4=O)C5=O)CC3)N2C(=O)[C@@H](NC(=O)c2cc3cc(C(F)(F)P(=O)(O)O)ccc3s2)C1` (some centres not stated) are below 250 nM and 250 nM.
As to `CCN1CC[C@H]2CC[C@@H](C(=O)N[C@@H](CCC(N)=O)C(=O)N[C@@H](Cc3ccc(NS(=O)(=O)c4ccc(C)cc4)cc3)C(=O)N3CCC(CCC#Cc4cccc5c4CN(C4CCC(=O)NC4=O)C5=O)CC3)N2C(=O)[C@@H](NC(=O)c2cc3cc(C(F)(F)P(=O)(O)O)ccc3s2)C1` (some centres not stated), the DC50 in assay [1] is below 250 nM; in assay [2], 250 nM.
The like results for `CCN1CC[C@H]2CC[C@@H](C(=O)N[C@@H](CNC(N)=O)C(=O)N[C@@H](Cc3ccc(C(C)(C)C)cc3)C(=O)N3CCC(CCC#Cc4cccc5c4CN(C4CCC(=O)NC4=O)C5=O)CC3)N2C(=O)[C@@H](NC(=O)c2cc3cc(C(F)(F)P(=O)(O)O)ccc3s2)C1` (some centres not stated) were, in that order, below 250 nM and above 1000 nM.
For the compound `COC(=O)N1CC[C@H]2CC[C@@H](C(=O)N[C@@H](CCC(N)=O)C(=O)N[C@@H](Cc3ccc(C(C)(C)C)cc3)C(=O)N3CCC(CCC#Cc4cccc5c4CN(C4CCC(=O)NC4=O)C5=O)CC3)N2C(=O)[C@@H](NC(=O)c2cc3cc(C(F)(F)P(=O)(O)O)ccc3s2)C1` (some centres not stated), the DC50 in assay [1] was below 250 nM; in assay [2], 250 nM.
With `CC(C)(C)c1ccc(C[C@H](NC(=O)[C@H](CCC(N)=O)NC(=O)[C@@H]2CC[C@@H]3CCN(CC(F)F)C[C@H](NC(=O)c4cc5cc(C(F)(F)P(=O)(O)O)ccc5s4)C(=O)N32)C(=O)N2CCC(CCC#Cc3cccc4c3CN(C3CCC(=O)NC3=O)C4=O)CC2)cc1` (some centres not stated), the DC50 in assay [1] and in assay [2] was below 250 nM in each case.
